pIC50: −log10 of the molar value. Activity calls are given as the source filed them. The calls are words filed in the database; no cut-off is given here.
Tests used:
[1] = Stabilization of 5'-UTR BCL-2 G-quadruplex RNA (unknown origin) transfected in imatinib-susceptible human GIST882 cells harboring c-KIT K642E mutant assessed as decrease in RNA translation by dual luciferase reporter gene assay
[2] = system: Quadruplex DNA; test: Stabilization of 5'-FAM/3'-TAMRA labeled BCL-2 promoter G-quadruplex DNA (unknown origin) assessed as change in melting temperature at 0.5 uM by FRET assay; type: nucleic-acid assay
[3] = system: Quadruplex DNA; test: Stabilization of 5'-FAM/3'-TAMRA labeled human F21T G-quadruplex DNA assessed as change in melting temperature at 0.5 uM by FRET assay; type: nucleic-acid assay
[4] = Antiproliferative activity against imatinib-resistant human GIST48 cells harboring c-KIT V560D/D820A double mutant after 96 hrs by SRB assay; type: functional; conditions: GIST48, 96 h
[5] = Stabilization of 5'-FAM/3'-TAMRA labeled 5'-UTR BCL-2 G-quadruplex RNA (unknown origin) assessed as melting temperature at 0.5 uM in presence of KCl by FRET assay
[6] = target: Telomerase reverse transcriptase (Homo sapiens) (UniProt O14746); test: Inhibition of telomerase activity in imatinib-resistant human GIST48 cells harboring c-KIT V560D/D820A double mutant at 0.05 to 0.30 uM incubated for 1 week by Sybr green staining based TRAP-PCR method
Chain of Telomerase reverse transcriptase (Homo sapiens) (O14746 whole entry): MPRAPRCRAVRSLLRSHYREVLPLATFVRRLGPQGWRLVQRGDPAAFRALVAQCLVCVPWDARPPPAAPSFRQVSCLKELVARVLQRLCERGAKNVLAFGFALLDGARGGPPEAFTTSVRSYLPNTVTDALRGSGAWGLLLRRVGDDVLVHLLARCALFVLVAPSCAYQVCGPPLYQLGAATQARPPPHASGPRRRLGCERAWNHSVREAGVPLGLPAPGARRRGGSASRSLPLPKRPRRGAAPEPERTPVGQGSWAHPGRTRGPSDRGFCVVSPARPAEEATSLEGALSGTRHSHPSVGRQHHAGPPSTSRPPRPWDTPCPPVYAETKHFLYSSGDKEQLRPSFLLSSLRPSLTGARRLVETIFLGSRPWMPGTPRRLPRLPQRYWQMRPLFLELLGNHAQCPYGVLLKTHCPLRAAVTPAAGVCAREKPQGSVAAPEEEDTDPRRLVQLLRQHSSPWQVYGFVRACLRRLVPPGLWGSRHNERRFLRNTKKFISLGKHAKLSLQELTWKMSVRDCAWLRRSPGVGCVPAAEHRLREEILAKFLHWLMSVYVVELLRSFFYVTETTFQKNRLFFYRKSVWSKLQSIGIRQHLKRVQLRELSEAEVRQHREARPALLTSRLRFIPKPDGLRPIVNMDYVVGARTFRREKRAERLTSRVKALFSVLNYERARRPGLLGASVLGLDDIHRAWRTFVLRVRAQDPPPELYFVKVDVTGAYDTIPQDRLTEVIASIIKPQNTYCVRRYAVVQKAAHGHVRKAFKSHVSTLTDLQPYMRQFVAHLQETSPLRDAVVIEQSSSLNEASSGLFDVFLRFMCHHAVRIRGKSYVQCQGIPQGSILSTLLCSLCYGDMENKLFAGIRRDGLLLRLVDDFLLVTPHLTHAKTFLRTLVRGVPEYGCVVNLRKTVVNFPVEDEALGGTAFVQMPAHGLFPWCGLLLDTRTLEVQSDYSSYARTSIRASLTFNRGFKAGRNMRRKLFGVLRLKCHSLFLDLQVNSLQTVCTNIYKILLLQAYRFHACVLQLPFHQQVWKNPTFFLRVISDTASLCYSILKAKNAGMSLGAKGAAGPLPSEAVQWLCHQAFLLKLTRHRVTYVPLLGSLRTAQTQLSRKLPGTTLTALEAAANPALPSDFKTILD

[7] = system: Quadruplex DNA; test: Stabilization of c-KIT G-quadruplex DNA in imatinib-resistant human GIST48 cells harboring c-KIT V560D/D820A double mutant assessed as downregulation of c-KIT protein expression at 1 uM after 1 week by immunoblot analysis relative to control
[8] = Antiproliferative activity against imatinib-resistant human GIST62 cells after 96 hrs by SRB assay; type: functional
[9] = system: dsDNA; test: Stabilization of 5'-FAM/3'-TAMRA labeled duplex DNA (unknown origin) assessed as change in melting temperature at 0.5 uM by FRET assay; type: nucleic-acid assay
[10] = system: Quadruplex DNA; test: Stabilization of c-KIT G-quadruplex DNA in imatinib-susceptible human GIST882 cells harboring c-KIT K642E mutant assessed as downregulation of c-KIT protein expression at 1 uM after 24 hrs by immunoblot analysis relative to control
[11] = system: Quadruplex DNA; test: Stabilization of 5'-FAM/3'-TAMRA labeled c-KIT2 G-quadruplex DNA (unknown origin) assessed as change in melting temperature at 0.5 uM by FRET assay; type: nucleic-acid assay
[12] = system: Quadruplex DNA; test: Stabilization of 5'-FAM/3'-TAMRA labeled c-KIT1 G-quadruplex DNA (unknown origin) assessed as change in melting temperature at 0.5 uM by FRET assay; type: nucleic-acid assay
[13] = Stabilization of 5'-UTR BCL-2 G-quadruplex RNA (unknown origin) transfected in imatinib-susceptible human GIST882 cells harboring c-KIT K642E mutant assessed as decrease in RNA translation at 10 uM by dual luciferase reporter gene assay relative to control; set-up: scale not given: the % may be the effect or the level left
[14] = target: Telomerase reverse transcriptase (Homo sapiens) (UniProt O14746); test: Inhibition of telomerase activity in imatinib-susceptible human GIST882 cells harboring c-KIT K642E mutant at 0.5 uM incubated for 1 week by Sybr green staining based TRAP-PCR method
[15] = species on record: Homo sapiens; test: Stabilization of 5'-UTR BCL-2 G-quadruplex RNA in imatinib-resistant human GIST48 cells harboring c-KIT V560D/D820A double mutant at 0.3 uM after 1 week by immunoblot analysis relative to control
[16] = system: Quadruplex DNA; test: Stabilization of c-KIT G-quadruplex DNA in imatinib-resistant human GIST48 cells harboring c-KIT V560D/D820A double mutant assessed as downregulation of c-KIT protein expression at 1 uM after 24 hrs by immunoblot analysis relative to control
[17] = Antiproliferative activity against imatinib-susceptible human GIST882 cells harboring c-KIT K642E mutant after 96 hrs by SRB assay; type: functional; conditions: GIST882, 96 h
[18] = Stabilization of 5'-FAM/3'-TAMRA labeled 5'-UTR BCL-2 G-quadruplex RNA (unknown origin) assessed as change in melting temperature at 0.5 uM by FRET assay
[19] = Stabilization of 5'-FAM/3'-TAMRA labeled 5'-UTR BCL-2 G-quadruplex RNA (unknown origin) assessed as melting temperature at 0.5 uM in presence of NaCl by FRET assay
[20] = system: HGC-27; test: Antiproliferative activity against human HGC27 cells after 96 hrs by SRB assay; type: functional, cell-based; conditions: HGC-27, 96 h
[21] = system: HT-29; test: Antiproliferative activity against human HT-29 cells after 96 hrs by SRB assay; type: functional, cell-based; conditions: HT-29, 96 h
[22] = system: MCF7; test: Antiproliferative activity against human MCF7 cells after 96 hrs by SRB assay; type: functional, cell-based; conditions: MCF7, 96 h

| SMILES | ΔTm [2] | ΔTm [3] | pIC50 [4] | pIC50 [8] | ΔTm [9] | ΔTm [11] | ΔTm [12] | pIC50 [17] | ΔTm [18] | pIC50 [20] | other results |
| --- | --- | --- | --- | --- | --- | --- | --- | --- | --- | --- | --- |
| O=C1c2cc(NCCN3CCCC3)c3c4c(cc(NCCN5CCCC5)c(c24)C(=O)N1CCN1CCCC1)C(=O)N(CCN1CCCC1)C3=O | 27.6 °C | 29.7 °C | 6.30 | 6.40 | 3.5 °C | 29 °C | 11.2 °C | 5.80 | 10.7 °C | 7.00 | Activity [1]: Dose-dependent effect; Tm [5]: 91 °C; inhibition [6]: inactive; Activity [7]: 37%; Activity [10]: 90%; Activity [13]: 30%; inhibition [14]: Active; Activity [15]: 85%; Activity [16]: 17%; Tm [19]: 64.5 °C; pIC50 [21]: 7.40 |
| Cc1ccc(NC(=O)c2ccc(CN3CCN(C)CC3)cc2)cc1Nc1nccc(-c2cccnc2)n1 [IMATINIB] | 0.1 °C | 0.2 °C | 4.70 | < 4.60 | 0.1 °C | 0.2 °C | 0.2 °C | 5.77 | 0.1 °C | – | pIC50 [22]: 4.95 |
| CN(C)c1ccc(Nc2c3ccc(NC(=O)CCN4CCCC4)cc3nc3cc(NC(=O)CCN4CCCC4)ccc23)cc1 | 17.9 °C | 21.6 °C | < 4.60 | < 4.60 | 7.2 °C | 18.5 °C | 6.5 °C | < 4.60 | – | 5.64 | – |
